The supplement of paper PMC10307832

Experiments:
Assay in all cases: relative viability (nuclei count vs DMSO), 5 days (fraction); higher = more cells survive
201T = tested on: 201T
In short: (§1)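 Relative viability was taken as the ratio of nuclei in treated wells to nuclei in vehicle wells. Lung cancer cell lines in 1536-well plates received compounds by pin tool one day after seeding, either one drug alone or a fixed anchor-drug dose plus five library-drug doses (not always all listed) in √10 steps. Nuclei were counted on 4× images after 5 days of treatment, and values are medians of duplicate plates.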

A-427 = tested on: A-427
In short: as §1

COR-L23 = tested on: COR-L23
In short: as §1

H3255 = tested on: H3255
In short: as §1

LCLC-103H = tested on: LCLC-103H
In short: as §1

LCLC-97TM1 = tested on: LCLC-97TM1
In short: as §1

LK-2 = tested on: LK-2
In short: as §1

LU99A = tested on: LU99A
In short: as §1

NCI-H1563 = tested on: NCI-H1563
In short: as §1

NCI-H1650 = tested on: NCI-H1650
In short: as §1

NCI-H1793 = tested on: NCI-H1793
In short: as §1

NCI-H1944 = tested on: NCI-H1944
In short: as §1

NCI-H2347 = tested on: NCI-H2347
In short: as §1

NCI-H23 = tested on: NCI-H23
In short: as §1

NCI-H460 = tested on: NCI-H460
In short: as §1

NCI-H650 = tested on: NCI-H650
In short: as §1

NCI-H727 = tested on: NCI-H727
In short: as §1

NCI-H838 = tested on: NCI-H838
In short: as §1

PC-14 = tested on: PC-14
In short: as §1

PC-3 [JPC-3] = tested on: PC-3 [JPC-3]
In short: as §1

SW 1573 = tested on: SW 1573
In short: as §1

SW 900 = tested on: SW 900
In short: as §1

In the case of `Oc1nc(-c2ccc(C(F)(F)F)cc2)nc2c1CSCC2` [XAV939] + COc1cc2c(Oc3ccc(NC(=O)C4(C(=O)Nc5ccc(F)cc5)CC4)cc3F)ccnc2cc1OCCCN1CCOCC1 [Foretinib] (partner 0.25 µM), the relative viability (201T; first compound 0.08 µM) is reported as 0.88, the relative viability (201T; first compound 0.253 µM) is reported as 0.705 and the relative viability (201T; first compound 0.8 µM) is reported as 0.861. It also gave a relative viability (201T; first compound 2.53 µM) of 0.746, a relative viability (A-427; first compound 0.08 µM) of 1.26 and a relative viability (A-427; first compound 0.253 µM) of 1.07. The relative viability (A-427; first compound 0.8 µM) was 1.04, the relative viability (A-427; first compound 2.53 µM) was 0.862 and the relative viability (COR-L23; first compound 0.08 µM) was 1.13. For the same molecule, the relative viability (COR-L23; first compound 0.253 µM) was 0.96, the relative viability (COR-L23; first compound 0.8 µM) was 0.948 and the relative viability (COR-L23; first compound 2.53 µM) was 0.903. It also gave a relative viability (H3255; first compound 0.08 µM) of 0.845, a relative viability (H3255; first compound 0.253 µM) of 0.825 and a relative viability (H3255; first compound 0.8 µM) of 0.803. It also gave a relative viability (H3255; first compound 2.53 µM) of 0.851, a relative viability (LCLC-103H; first compound 0.08 µM) of 0.853 and a relative viability (LCLC-103H; first compound 0.253 µM) of 0.643. It also gave a relative viability (LCLC-103H; first compound 0.8 µM) of 0.748, a relative viability (LCLC-103H; first compound 2.53 µM) of 0.659 and a relative viability (LCLC-97TM1; first compound 0.08 µM) of 0.919. It also gave a relative viability (LCLC-97TM1; first compound 0.253 µM) of 0.796, a relative viability (LCLC-97TM1; first compound 0.8 µM) of 0.897 and a relative viability (LCLC-97TM1; first compound 2.53 µM) of 0.936. It also gave a relative viability (LK-2; first compound 0.08 µM) of 1.96, a relative viability (LK-2; first compound 0.253 µM) of 1.19 and a relative viability (LK-2; first compound 0.8 µM) of 1.08. It also gave a relative viability (LK-2; first compound 2.53 µM) of 1.13, a relative viability (LU99A; first compound 0.08 µM) of 0.794 and a relative viability (LU99A; first compound 0.253 µM) of 0.815. It also gave a relative viability (LU99A; first compound 0.8 µM) of 0.744, a relative viability (LU99A; first compound 2.53 µM) of 0.724 and a relative viability (NCI-H1563; first compound 0.08 µM) of 1.02. For the same molecule, the relative viability (NCI-H1563; first compound 0.253 µM) was 0.905, the relative viability (NCI-H1563; first compound 0.8 µM) was 0.831 and the relative viability (NCI-H1563; first compound 2.53 µM) was 0.678. For the same molecule, the relative viability (NCI-H1650; first compound 0.08 µM) was 1.16, the relative viability (NCI-H1650; first compound 0.253 µM) was 1.25 and the relative viability (NCI-H1650; first compound 0.8 µM) was 1.09. For the same molecule, the relative viability (NCI-H1650; first compound 2.53 µM) was 0.625, the relative viability (NCI-H1793; first compound 0.08 µM) was 0.846 and the relative viability (NCI-H1793; first compound 0.253 µM) was 0.558. The relative viability (NCI-H1793; first compound 0.8 µM) was 0.63, the relative viability (NCI-H1793; first compound 2.53 µM) was 0.454 and the relative viability (NCI-H1944; first compound 0.08 µM) was 0.942. The relative viability (NCI-H1944; first compound 0.253 µM) was 0.842, the relative viability (NCI-H1944; first compound 0.8 µM) was 0.814 and the relative viability (NCI-H1944; first compound 2.53 µM) was 0.704. The relative viability (NCI-H2347; first compound 0.08 µM) was 0.797, the relative viability (NCI-H2347; first compound 0.253 µM) was 0.803 and the relative viability (NCI-H2347; first compound 0.8 µM) was 0.786. For the same molecule, the relative viability (NCI-H2347; first compound 2.53 µM) was 0.354, the relative viability (NCI-H23; first compound 0.08 µM) was 1.08 and the relative viability (NCI-H23; first compound 0.253 µM) was 0.844. For the same molecule, the relative viability (NCI-H23; first compound 0.8 µM) was 0.868, the relative viability (NCI-H23; first compound 2.53 µM) was 0.962 and the relative viability (NCI-H460; first compound 0.08 µM) was 1.01. The relative viability (NCI-H460; first compound 0.253 µM) was 0.926, the relative viability (NCI-H460; first compound 0.8 µM) was 0.999 and the relative viability (NCI-H460; first compound 2.53 µM) was 0.922. For the same molecule, the relative viability (NCI-H650; first compound 0.08 µM) was 1.16, the relative viability (NCI-H650; first compound 0.253 µM) was 0.991 and the relative viability (NCI-H650; first compound 0.8 µM) was 1.09. It also gave a relative viability (NCI-H650; first compound 2.53 µM) of 0.857, a relative viability (NCI-H727; first compound 0.08 µM) of 0.997 and a relative viability (NCI-H727; first compound 0.253 µM) of 0.774. For the same molecule, the relative viability (NCI-H727; first compound 0.8 µM) was 0.821, the relative viability (NCI-H727; first compound 2.53 µM) was 0.928 and the relative viability (NCI-H838; first compound 0.08 µM) was 1.01. It also gave a relative viability (NCI-H838; first compound 0.253 µM) of 0.957, a relative viability (NCI-H838; first compound 0.8 µM) of 0.931 and a relative viability (NCI-H838; first compound 2.53 µM) of 0.575. It also gave a relative viability (PC-14; first compound 0.08 µM) of 0.945, a relative viability (PC-14; first compound 0.253 µM) of 0.869 and a relative viability (PC-14; first compound 0.8 µM) of 0.885. The relative viability (PC-14; first compound 2.53 µM) was 0.905, the relative viability (PC-3 [JPC-3]; first compound 0.08 µM) was 1.03 and the relative viability (PC-3 [JPC-3]; first compound 0.253 µM) was 0.854. The relative viability (PC-3 [JPC-3]; first compound 0.8 µM) was 1.02, the relative viability (PC-3 [JPC-3]; first compound 2.53 µM) was 0.951 and the relative viability (SW 1573; first compound 0.08 µM) was 1.2. It also gave a relative viability (SW 1573; first compound 0.253 µM) of 0.816, a relative viability (SW 1573; first compound 0.8 µM) of 0.732 and a relative viability (SW 1573; first compound 2.53 µM) of 0.788. The relative viability (SW 900; first compound 0.08 µM) was 0.848, the relative viability (SW 900; first compound 0.253 µM) was 0.765 and the relative viability (SW 900; first compound 0.8 µM) was 0.767. It also gave a relative viability (SW 900; first compound 2.53 µM) of 0.82.
